Source: US20150352114A1, “MITOTIC KINESIN Eg5 INHIBITING ANTICANCER AGENTS” (THE CLEVELAND CLINIC FOUNDATION, priority 2014, published 2015)

Tested on: matched GSCs and NSTCs
Assay: Long-term viability assay, CellTiter-Glo, 5 days
Type: cell-based, human
Conditions: 3 nM; two matched GSCs and NSTCs
Method: The half maximal effective concentration of ispinesib for acutely dissociated and MACS sorted matched GSCs and NSTCs was determined by plating, in triplicate, 1,000 cells per well of a 96 well plate pre-coated with GelTrex in growth-factor free Neuralbasal media. The next day, cells were exposed to 2-fold increasing concentrations of ispinesib spanning from 0 to 32 nM. Viability was measured at 72 hours using CellTiter-Glo ATP-based assay (Promega, Madison, Wis.) read on a luminometer (Perkin-Elmer, Waltham, Mass.). For long-term viability assays, 500 cells per well were plated in triplicate into 96-well plates as above. The next day, cells were exposed to 3 nM ispinesib or vehicle (DMSO) and viability was measured daily for 5 days using CellTiter-Glo. Day 0 reading were taken immediately after addition of drug or vehicle. SubG1 for GSCs and NSTCs was determined by flow cytometry for propidium iodide and gated as the events below the 2N G1 peak of the resulting histogram. Analysis was done following treatment of 100,000 cells with vehicle or 3 nM ispinesib. Cells were fixed at Day 0 through Day 4 in 100% cold ethanol and simultaneously processed for flow analysis with 20,000 events analyzed per condition.

Q: Which “cell viability over five-day time course” value does the source give for `Cc1ccc(C(=O)N(CCCN)[C@@H](c2nc3cc(Cl)ccc3c(=O)n2Cc2ccccc2)C(C)C)cc1` [ispinesib, N-(3-amino-propyl)-n-[R-1-(3-benzyl-7-choloro-4-oxo-3,4-dihydroquinazolin-2-yl)-2-methyl-propyl]-4-methyl-benzamide methanesulfonate] here?
A: Both populations demonstrated sensitivity
